Assay [1] deals with T1, human ETB endothelin receptor (Homo sapiens, UniProt P24530).
T1 construct: expressed in transfected cells; host or cells: CHO cells (clone ETB 12)
T1 sequence (P24530 27-442): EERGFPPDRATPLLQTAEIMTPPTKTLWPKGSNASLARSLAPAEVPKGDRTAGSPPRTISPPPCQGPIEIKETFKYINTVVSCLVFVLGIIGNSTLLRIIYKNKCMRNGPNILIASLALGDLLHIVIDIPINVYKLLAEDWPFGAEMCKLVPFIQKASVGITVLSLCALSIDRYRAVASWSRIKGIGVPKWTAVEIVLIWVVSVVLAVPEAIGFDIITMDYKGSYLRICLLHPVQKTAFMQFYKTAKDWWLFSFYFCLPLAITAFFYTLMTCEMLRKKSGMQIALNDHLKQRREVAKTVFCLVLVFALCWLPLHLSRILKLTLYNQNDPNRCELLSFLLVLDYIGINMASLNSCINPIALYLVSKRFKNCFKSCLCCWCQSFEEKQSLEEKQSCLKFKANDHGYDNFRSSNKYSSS
Kind of assay: Binding Test to ETB receptor expressed in CHO cell (ET-1-stimulated [3H]arachidonic acid release). In kind it is cell-based. Conditions: CHO cell expressing human ETB (ETB 12 cells), final concentration of ET-1 6.3x10^-10M, n=2. As to the method:
Binding Test to ETB receptor expressed in CHO cell:
cells: CHO cell expressing human ETB endothelin receptor, i.e. ETB 12 cells medium: DMEM 10% FCS Gln, nonessential amino acids, penicillin, streptomycin
Cells were seeded in 12 wells of 24 well plates at a density of 2x10^5 cells/well (1 ml medium/well). On the next day, [^3H]arachidonic acid was added to each well to be 250 nCi(nanocurie)/ml. On the next day, the medium was sucked from the wells by the use of an aspirator to remove free arachidonic acid and floating cells, and then 0.5 ml of medium was added. This procedure was repeated agian. After allowing to stand for 30minutes in a CO2 incubator, the medium was exchanged rapidly.
The sample of compound obtained in Example 5 or compound 16 of Example 11 was stepwise diluted with a buffer solution for dilution, containing 3.15x10^-8M endothelin-1 (ET-1) {20 mM Tris, 5mM Mg(AcO)2, 2 mM EGTA, 0.03% NaN3, 0.1% BSA, 0.05% CHAPS}. 10 µl of the solution was added to each well (final concentration of ET-1: 6.3x10^-10M). […] After allowing to-stand for 30 minutes in the CO2 incubator, the medium was completely collected and the radio activity of [^3H]arachidonic acid released in the medium was measured by a liquid scintillation counter. IC50 values were calculated by Hill Plot from the concentration and relative reaction value of each sample.

For assay [2], the system named is coronary vein where ETB is expressed. Kind of assay: Inhibition Test on coronary vein where ETB is expressed (S6c-induced constriction of ring samples). Particulars: Sus scrofa, porcine coronary vein ring, pre-treatment 30 minutes, relative to vehicle group, read-out: % inhibition (MEAN ± S.E.M.) (n=) vein (S6c 1 nM); for inhibition at 0.1 µM: compound 0.1 µM; for inhibition at 10 µM: compound 10 µM. As to the method: Inhibition Test on coronary vein where ETB is expressed:
3-mm ring samples for vehicle group and drug-treating group were prepared by removing fat and connective tissue from coronary vein enucleated from porcine heart and obtained from the adjacent portions thereof. The samples, hanging in Magnus tube filled with Krebs solution, were stabilized for 90 minutes under 0.5 g static tension. After subjecting the samples to constriction for 10 minutes by potassium chloride (KCl) (60 mM) to obtain the maximum reaction, the samples were washed and stabilized for 60 minutes. After pre-treating compound obtained in Example 5 or Compound 16 of Example 11 or vehicle (H2O) for 30 minutes, S6c (1 nM) (S6c: sarafotoxin S6c, peptide type snake toxin consisting of 21 amino acids, it is useful for the selective agonist to ETB receptor owing to the similarity of its structure to endothelin) was added to observe the maximum constriction.
The constriction efficiency (% KCl) of S6c was calculated as a relative value to KCl constriction of each sample which was regarded as 100%. Further, the inhibiting efficiency was calculated from the constriction efficiency of the drug-treating group calculated as a relative value to the constriction of the vehicle group which was regarded as 100%.

In assay [3] the target is T2, human endothelin-B (ETB) receptors (Homo sapiens, UniProt P24530).
T2 construct: made in house; host or cells: Sf9 insect cells (membrane fractions)
T2 sequence (P24530 27-442): T1 sequence (P24530 27-442)
The assay can be described thus: Binding Test to ETB receptor expressed in an insect cell Sf9 ([125I]endothelin-1 displacement). As to the method: Binding Test to ETB receptor expressed in an insect cell Sf9:
Endothelin (ET) receptors were prepared by diluting fractions of insect cell (Sf9) membrane having human endothelin-B (ETB) receptors expressed, with an assay buffer {200 mM Tris-HCl, 2 mM EGTA (ethylenegiycol bis(2-aminoethylether) tetra acetic acid), 5 mM magnesium acetate, 0.1% BSA (bovine serum albumin), 0.03% NaN3, 0.5 mM PMSF(phenyl methyl sulfonyl fluoride), 20 µg/ml leupeptin, 4 µg/ml E-64 (products of the Peptide Institute), 1 µg/ml pepstatin, (pH 7.2)} respectively in a concentration of 1.4 µg/ml in the former case and 0.7 µg/ml in the latter case.
To 100 µl of each portion was added 5 nM[^125I] endothelin-1 (2 µl). A dimethylsulfoxide solution (3 µl) of the sample was added thereto and incubated at 25°C fpr 60 minutes.
And, to determine the maximum binding amount (B0) and non-specific binding amount (NSB), lots to which a dimethyl sulfoxide solution (3 µl) or a dimethyl sulfoxide solution (3 µl) containing endothelin-1 (10^-5M) had been added, were also incubated.
These lots were supplemented with 0.05% CHAPS(3-[(3-chloroamidopropyl)dimethylammonio]-1-propanesulfonate)-assay buffer (1.5 ml), subjected to filtration through a glass fiber filter GF/F (trade name; product of Whatman Ltd. (England)), and then washed with the same buffer (1.5 ml).
Radioactivity on the filter was counted in a gamma-counter to determine the Percent Maximum Binding (PMB) in accordance with the aforesaid calculation formula. The concentration causing PMB=50% was determined as IC50 value.

Assay [4] relates to coronary artery where ETA is expressed. Kind of assay: Inhibition Test on coronary artery where ETA is expressed (ET-1-induced constriction of ring samples). Particulars: porcine coronary artery ring, pre-treatment 30 minutes, relative to vehicle group. As to the method:
Inhibition Test on coronary artery where ETA is expressed:
3-mm ring samples for vehicle group and drug-treating group were prepared by removing fat and connective tissue from coronary artery enucleated from porcine heart and obtained from the adjacent portions thereof. The samples, hanging in Magnus tube filled with Krebs solution, were stabilized for 90 minutes under 2 g of static tension. After subjecting the samples to constriction for 10 minutes by potassium chloride (KCl) (60 mM) to obtain the maximum reaction, the samples were then washed and stabilized for 60 minutes. […]
The constriction efficiency (% KCl) of ET-1 was calculated as a relative value to KCl constriction of each sample which was regarded as 100%. Further, the inhibiting efficiency was calculated from the constriction efficiency of the drug-treating group calculated as a relative value to the constriction of the vehicle group which was regarded as 100%.

The mark [5] stands for this setting: Sf9 membrane fractions, [125I]endothelin-1, 25°C, 60 minutes, concentration causing PMB=50%, read-out: IC50 value: µM Human endotherin-B receptor.
The mark [6] stands for this setting: Table 6, values recur in Table 8, read-out: Binding IC50 (µM) ETB.

Like-named read-outs stand apart in the source and are kept apart here.

The IC50 is the concentration needed to halve the response being measured. A word on the inhibition: it is the relative decrease from the control value, in per cent. Regarding `CCS(=O)(=O)NCc1c(-c2ccc(OCOC)cc2)sc2c1c(=O)n(CC(=O)O)c(=O)n2Cc1ccccc1SC` [11(16), 2,4(1H,3H)-Dioxo-6-(4-methoxymethoxyphenyl)-1-(2-methylthiobenzyl)-5-(ethanesulfonamidomethyl)thieno[2,3-d]pyrimidine-3-acetic acid], the concentration for half-maximal inhibition (IC50) was 130 nM in assay [1], 0.054 µM in assay [3] (setting [5]) and 0.054 µM in assay [3] (setting [6]). Moreover, the inhibition at 0.1 µM in assay [2] is 53.3 ± 4.4%. In assay [2], the inhibition at 10 µM came to 98 ± 1.1%. Moreover, the “% inhibition (MEAN ± S.E.M.) (n=) artery (ET-1 3nM)” value in assay [4] (compound 1 µM) is listed as 33.1 ± 8.6 (4) %.
Consider `COCOc1ccc(-c2sc3c(c2CNS(C)(=O)=O)c(=O)n(CC(=O)O)c(=O)n3Cc2ccccc2SC)cc1` [Example 5, 2,4(1H,3H)-dioxo-6-(4-methoxymethoxyphenyl)-1-(2-methylthiobenzyl)-5-(methanesulfonamidomethyl)thieno[2,3-d]pyrimidine-3-aretic acid], for which the results for the concentration for half-maximal inhibition (IC50) in assay [1], in assay [3] (setting [5]) and in assay [3] (setting [6]) were 490 nM, 0.2 µM and 0.1 µM, respectively. Moreover, the inhibition at 0.1 µM in assay [2] came out at 73.4 ± 3.1%. Moreover, the inhibition at 10 µM in assay [2] was determined as 100%. In addition, the “% inhibition (MEAN ± S.E.M.) (n=) artery (ET-1 3nM)” value in assay [4] (compound 0.1 µM) is listed as 7.6 ± 37.3 (3) %; in assay [4] (compound 1 µM), 78.1 ± 11.9 (4) %.

The values are drawn from patent EP0846119B1, “THIENOPYRIMIDINE DERIVATIVES, THEIR PRODUCTION AND USE AS ENDOTHELIN ANTAGONISTS” (Takeda Chemical Industries, Ltd., priority 1995, dated 1997).
